Measured values reported in PubChem BioAssay (NCI).
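How tested: cells in 96-well plates exposed to compound for 48 hours at five concentrations. At the GI50, growth is halved. TGI denotes the concentration required for complete inhibition of growth.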

Experiments:
Test in all cases: NCI anticancer screen, dose series, 48 h
[1] = system: 786-0 renal
[2] = system: A498 renal
[3] = system: A549 NSCLC
[4] = system: ACHN renal
[5] = system: BT-549 breast
[6] = system: CAKI-1 renal
[7] = system: CCRF-CEM leukemia
[8] = system: COLO 205 colon
[9] = system: DU-145 prostate
[10] = system: EKVX NSCLC
[11] = system: HCC-2998 colon
[12] = system: HCT-116 colon
[13] = system: HCT-15 colon
[14] = system: HL-60(TB) leukemia
[15] = system: HOP-62 NSCLC
[16] = system: HOP-92 NSCLC
[17] = system: HS 578T breast
[18] = system: HT29 colon
[19] = system: IGROV1 ovarian
[20] = system: K-562 leukemia
[21] = system: KM12 colon
[22] = system: LOX IMVI melanoma
[23] = system: M14 melanoma
[24] = system: MALME-3M melanoma
[25] = system: MCF7 breast
[26] = system: MDA-MB-231 breast
[27] = system: MDA-MB-435
[28] = system: MDA-MB-468 breast
[29] = system: MOLT-4 leukemia
[30] = system: NCI-H226 lung
[31] = system: NCI-H23 lung
[32] = system: NCI-H460 lung
[33] = system: NCI-H522 lung
[34] = system: NCI/ADR-RES ovarian
[35] = system: OVCAR-3 ovarian
[36] = system: OVCAR-4 ovarian
[37] = system: OVCAR-5 ovarian
[38] = system: OVCAR-8 ovarian
[39] = system: PC-3 prostate
[40] = system: RPMI-8226 leukemia
[41] = system: SF-268 CNS
[42] = system: SF-295 CNS
[43] = system: SF-539 CNS
[44] = system: SK-MEL-2 melanoma
[45] = system: SK-MEL-28 melanoma
[46] = system: SK-MEL-5 melanoma
[47] = system: SK-OV-3 ovarian
[48] = system: SN12C renal
[49] = system: SNB-19 CNS
[50] = system: SNB-75 CNS
[51] = system: SR leukemia
[52] = system: SW-620 colon
[53] = system: T-47D breast
[54] = system: TK-10 renal
[55] = system: U251 CNS
[56] = system: UACC-257 melanoma
[57] = system: UACC-62 melanoma
[58] = system: UO-31 renal

Structure (SMILES): N/C(=N\c1nc2ccccc2s1)NC(=O)Nc1ccccc1Br
- GI50 [1]: 170 nM
- GI50 [2]: > 38200 nM
- TGI [2]: > 58400 nM
- GI50 [3]: 282 nM
- GI50 [4]: 244 nM
- GI50 [5]: 256 nM
- TGI [5]: 7180 nM
- GI50 [6]: 92.5 nM
- GI50 [7]: 118 nM
- GI50 [8]: 96.4 nM
- TGI [8]: 328 nM
- GI50 [9]: 140 nM
- GI50 [10]: 183 nM
- TGI [10]: > 76900 nM
- GI50 [11]: 192 nM
- TGI [11]: 3390 nM
- GI50 [12]: 115 nM
- TGI [12]: 3630 nM
- GI50 [13]: 116 nM
- GI50 [14]: 89.3 nM
- GI50 [15]: 145 nM
- TGI [15]: > 32000 nM
- TGI [16]: > 28100 nM
- GI50 [17]: 79.8 nM
- TGI [17]: > 25500 nM
- GI50 [18]: 92.1 nM
- TGI [18]: 286 nM
- GI50 [19]: 164 nM
- TGI [19]: > 35000 nM
- GI50 [20]: 75.3 nM
- TGI [20]: > 100000 nM
- GI50 [21]: 125 nM
- GI50 [22]: 235 nM
- TGI [22]: 8740 nM
- GI50 [23]: 76.8 nM
- GI50 [24]: 151 nM
- TGI [24]: > 25000 nM
- GI50 [25]: 119 nM
- TGI [25]: > 91600 nM
- GI50 [26]: 148 nM
- TGI [26]: 1430 nM
- GI50 [27]: < 37.2 nM
- TGI [27]: 76.7 nM
- GI50 [28]: 419 nM
- TGI [28]: 1660 nM
- GI50 [29]: 165 nM
- TGI [29]: > 33800 nM
- GI50 [30]: 723 nM
- TGI [30]: 8730 nM
- GI50 [31]: 146 nM
- TGI [31]: > 20600 nM
- GI50 [32]: 116 nM
- GI50 [33]: < 48.5 nM
- TGI [33]: 169 nM
- GI50 [34]: 10.1 nM
- TGI [34]: 40.6 nM
- GI50 [35]: 102 nM
- TGI [35]: 1340 nM
- GI50 [36]: 6210 nM
- TGI [36]: > 23500 nM
- GI50 [37]: 220 nM
- GI50 [38]: 148 nM
- GI50 [39]: 162 nM
- TGI [39]: > 53100 nM
- GI50 [40]: 149 nM
- GI50 [41]: 801 nM
- TGI [41]: > 35000 nM
- GI50 [42]: 104 nM
- TGI [42]: 3860 nM
- GI50 [43]: 69.3 nM
- TGI [43]: 195 nM
- GI50 [44]: 39.9 nM
- TGI [44]: 10800 nM
- GI50 [45]: 1430 nM
- TGI [45]: > 100000 nM
- GI50 [46]: 103 nM
- TGI [46]: 697 nM
- GI50 [47]: 188 nM
- TGI [47]: > 32200 nM
- GI50 [48]: 194 nM
- GI50 [49]: 178 nM
- TGI [49]: > 43100 nM
- GI50 [50]: 58.3 nM
- TGI [51]: > 41800 nM
- GI50 [52]: 116 nM
- TGI [52]: > 38100 nM
- GI50 [53]: 51.3 nM
- TGI [53]: > 100000 nM
- TGI [54]: > 28400 nM
- GI50 [55]: 116 nM
- TGI [56]: > 100000 nM
- GI50 [57]: 88.2 nM
- TGI [57]: > 35100 nM
- GI50 [58]: 184 nM
- TGI [58]: > 37200 nM
